Values joined by “and” are separate entries in the source; they are usually repeats but may differ in a detail not shown here. Equal values may be shown once. Marks after values point to notes of the source that are not given here.

The text below walks through data of patent US7732398B2, “Medicinal uses of mu-opioid receptor agonists” (Cornell Research Foundation, Inc., priority 2000, dated 2010).

Series [1] has as its system Male Sprague-Dawley rats. The series is described as follows: Respiratory effects: minute ventilation (VE) under 5% CO2 challenge, whole body plethysmography. It counts as in vivo, rat. Particulars: for minimum VE compared with saline group: intrathecal. How it is done: The effects of each drug on minute ventilation (VE) under 5% CO2 challenge were evaluated using whole body plethysmography (Tatsumi et al., 1991). An unrestrained rat was placed in a 3-liter whole-body plethysmograph chamber. After a 15-min acclimation period, a gas mixture of 5% CO2 and 21% O2 in N2 (100% humidified) was supplied into and out of the chamber at a rate of 1000 ml/min, and the animal was allowed to breathe the gas mixture for 5 minutes. After a steady-state ventilatory condition had been reached, with the animal awake and quiet, the inlet and outlet of the chamber were closed and the pressure changes in the box (due to the warming and wetting of the gas inspired by the rat and the cooling and drying of the expired gas) were recorded using a high-gain differential pressure transducer. A calibration volume of 0.2 ml of air was regularly introduced into the chamber during the recordings. The recordings were made for 20 to 30 seconds. Tidal volumes were calculated from the pressure changes using the equation derived by Drorbaugh and Fenn (1955). Respiratory frequencies were determined from the number of respiratory cycles in the recordings and VE values were calculated (tidal volume×frequency).
Rats were randomly assigned to one of 7 groups. The number of rats in each group was 6 to 10. The animals of each group were given 3 times (lower dose) or 30 times (higher dose) the ED50 value (antinociceptive) of MOR, DALDA or [Dmt^1]DALDA, or saline by direct percutaneous intrathecal injection. VE under 5% CO2 challenge was determined prior to and every hour up to 10 hours after the administration of the drug. VE values were expressed as a percentage of the baseline VE value obtained prior to the administration of any drug. The smallest VE value obtained after the administration of a drug (minimum V E) was determined for each animal. Mean values of the minimum V E for animals of each group were compared using the one-way analysis of variance followed by the Dunnett's test. For each animal, respiratory depression was defined as a minimum VE value that is below two standard deviations of the mean (mean−2×SD) of the saline group.
A minimum VE value (see Materials and Methods) less than the mean−(2×S.D.) of the minimum VE value of the saline group was considered a “low minimum VE”.

For series [2], the system named is Male Sprague-Dawley rats. The series is described as follows: Behavioral effects after intrathecal administration. Conditions: for rigidity of the caudal part of the body: higher dose (30 times ED50). Format: in vivo, rat. An excerpt:
However, they retained their righting reflex.

Series [3] relates to Male Sprague-Dawley rats. Put plainly: Rat tail-flick test, antinociceptive effects after intrathecal administration. It counts as in vivo. Conditions: for time for which tail-flick latencies were significantly greater than baseline: 3 times ED50, direct percutaneous intrathecal injection, n=8; for Response Latencies: 3 times ED50 intrathecal, at peak analgesia; for Potency Ratios: antinociceptive potency relative to intrathecal morphine (=1); for EDT50: cumulative dose-response, quantal tail-flick test, n=10; for Baseline Latencies: tail-flick latency prior to the administration of any drug, n=4. The procedure: Male Sprague-Dawley rats (300-350 g) were used.
Under light halothane anesthesia a needle connected to a Hamilton syringe was inserted percutaneously between spinal processes of the third and fourth lumbar vertebrae into the intrathecal space. A quick flick of the tail was observed when the tip of the needle entered the intrathecal space and was used as an indicator of successful puncture (Mestre et al., 1994). Drugs were delivered in a volume of 5 μl.
Intrathecal catheterization was performed at least two days prior to the experiment as previously described (Shimoyama et al., 1996). Briefly, under halothane anesthesia, a PE-10 tube was inserted through a small hole made in the atlanto-occipital membrane and threaded 8.5 cm down the intrathecal space to the lumbosacral level of the spinal cord. Drugs were delivered via the catheter in a volume of 5 μl, followed by 10 μl saline to flush the catheter.
To assess the antinociceptive effects of the opioids, the tail-flick test was used. Radiant heat was applied to the tail at 5-8 cm from the tip using a tail-flick apparatus (IITC, Woodland Hills, Calif.). The time from the onset of the heat to the withdrawal of the tail (tail-flick latency) was measured. The intensity of the radiant heat was adjusted so that baseline latencies would fall between 2.5 and 3.5 seconds. To avoid tissue damage the heat stimulus was discontinued after seven seconds. A baseline latency was obtained for each animal prior to the administration of any drug. Subsequent response latencies were determined at designated time points. Analgesic testing was performed by a blinded investigator.
Cumulative dose-response studies were performed for each drug using the tail-flick test (Shimoyama et al., 1996), (Shimoyama et al., 1997). Each drug was tested in a group of ten rats. After measuring the baseline latencies, increasing doses of each drug were administered via an intrathecal catheter until each animal in the group became an analgesic responder. An analgesic responder was defined as one whose response tail-flick latency was two or more times the value of the baseline latency. The response latency after each dosing was determined at peak analgesia, which was 15, 30 and 45 min after the administration of the MOR, DALDA and [Dmt^1]DALDA, respectively (based on preliminary studies). Any subsequent dosing was performed immediately after the determination of response latency. The percentage of analgesic responders in the group of rats for each cumulative dose was calculated, and a cumulative dose-response curve was constructed. The dose-response data were analyzed by the BLISS-21 computer program. This program maximized the log-likelihood function to fit a parallel set of gaussian normal sigmoid curves to the dose-response data and provides ED50 values, 95% confidence interval (CI) and relative potency estimates (Umans and Inturrisi, 1981).
The effect of naloxone on the antinociceptive effects of intrathecal MOR, DALDA and [Dmt^1]DALDA was examined. An equipotent dose (3 times the ED50 value determined in Study 1) of MOR, DALDA or [Dmt^1]DALDA was given via an intrathecal catheter. Tail-flick latencies were measured prior to the administration of any drug and at the time of peak analgesia for each compound (at 15, 30 and 45 minutes after administration, for MOR, DALDA and [Dmt^1]DALDA, respectively). Naloxone hydrochloride at a dose of 82.5 nmol or saline was administered via the intrathecal catheter 10 minutes prior to the second tail-flick testing. Four rats were tested for each combination of drugs. Data were analyzed using the paired t-test.
A dose 3 times the ED50 value of MOR, DALDA, or [Dmt^1]DALDA was administered intrathecally. Tail-flick latencies were measured prior to the administration of any drug (=baseline latency) and at the time of peak analgesia (=response latency). […]

Where [4] appears, read: high dose (30 times antinociceptive ED50).
Where [5] appears, read: low dose (3 times antinociceptive ED50).
The mark [6] stands for this setting: naloxone hydrochloride 82.5 nmol intrathecal 10 min prior to measurement.
Setting [7] is: higher dose, 30 times ED50 (Morphine 100 nmol of 10 rats, DALDA 7 nmol of 8, [Dmt1]DALDA 34 pmol of 7).
[8] abbreviates: lower dose, 3 times ED50 (Morphine 10 nmol, DALDA 0.7 nmol, [Dmt1]DALDA 3.4 pmol), 6 rats per group.

For `Cc1cc(O)cc(C)c1C[C@H](N)C(=O)N[C@H](CCCNC(=N)N)C(=O)N[C@@H](Cc1ccccc1)C(=O)N[C@@H](CCCCN)C(N)=O` [[Dmt^1]DALDA, 2′,6′-dimethyl-Tyr-D-Arg-Phe-Lys-NH2], the “minimum VE compared with saline group” value in the series with Male Sprague-Dawley rats [1] (setting [4]) is “not different”. In addition, in the series with Male Sprague-Dawley rats [1] (higher dose, 30 times ED50), the “Time of Occurrence of Low Minimum VE” value amounted to 3 h after administration. In the series with Male Sprague-Dawley rats [1] (setting [5]), the “minimum VE compared with saline group” value is on record as “not different”. The “rigidity of the caudal part of the body” value in the series on Male Sprague-Dawley rats [2] is “Rigidity of the caudal part of the body was observed in each animal”. In the series with Male Sprague-Dawley rats [3], the “time for which tail-flick latencies were significantly greater than baseline” value was found to be 13 h; the “Potency Ratios” value is 3000 and 3160; the “Baseline Latencies” value is reported as 2.83 ± 0.17 s. The “Response Latencies” value in the series with Male Sprague-Dawley rats [3] (setting [6]) is given as “not different from baseline values”. In the series on Male Sprague-Dawley rats [3] (saline 10 min prior to measurement, cut-off 7 s, listed as [Dmt^1]DALDA + saline), the “Response Latencies” value is on record as ≥ 7 (cut-off latency)* s. The “potency relative to DALDA in the rat tail flick test” value with Male Sprague-Dawley rats [3] (after intrathecal administration) was found to be 200 fold. Moreover, in the series with Male Sprague-Dawley rats [3] (intrathecal), the EDT50 was 1.06 pmol. Further, the “effect of added yohimbine (100 μg) on the antinociceptive effect” value in the series on Male Sprague-Dawley rats [3] (intrathecal, [Dmt1]DALDA 1.1 pmol or DALDA 240 pmol with yohimbine) is recorded as “significantly attenuated”.
Take `CN1CC[C@]23c4c5ccc(O)c4O[C@H]2[C@@H](O)C=C[C@H]3[C@H]1C5` [Morphine, morphine, reference compound]: in the series on Male Sprague-Dawley rats [1] (setting [4]), the “minimum VE compared with saline group” value was “significantly lower”. In addition, the “Time of Occurrence of Low Minimum VE” value with Male Sprague-Dawley rats [1] (higher dose, 30 times ED50) is 3-5 h after administration; with Male Sprague-Dawley rats [1] (lower dose, 3 times ED50), 4 h after administration. Besides, the “No. of Rats with Low Minimum VE” value is given as 4 in the series with Male Sprague-Dawley rats [1] (setting [7]); 1 with Male Sprague-Dawley rats [1] (setting [8]); “one” with Male Sprague-Dawley rats [1] (lower dose, 3 times ED50 (Morphine 10 nmol, DALDA 0.7 nmol, [Dmt1]DALDA 3.4 pmol), 6 rats per group, listed as MOR). Further, the “rigidity of the caudal part of the body” value in the series on Male Sprague-Dawley rats [2] is “Rigidity of the caudal part of the body was observed in each animal”. Moreover, in the series with Male Sprague-Dawley rats [3], the “time for which tail-flick latencies were significantly greater than baseline” value stood at 3 h. Further, the “Response Latencies” value in the series on Male Sprague-Dawley rats [3] (setting [6]) is recorded as “not different from baseline values”; in the series on Male Sprague-Dawley rats [3] (saline 10 min prior to measurement, cut-off 7 s, listed as MOR + saline), ≥ 7 (cut-off latency)* s. Moreover, the EDT50 with Male Sprague-Dawley rats [3] (intrathecal) turned out to be 3330 pmol. In the series on Male Sprague-Dawley rats [3], the “Baseline Latencies” value amounted to 2.78 ± 0.50 s.
For `NCCCC[C@H](NC(=O)[C@H](Cc1ccccc1)NC(=O)[C@@H](CCCN=C(N)N)NC(=O)[C@@H](N)Cc1ccc(O)cc1)C(N)=O` [DALDA, H-Tyr-D-Arg-Phe-Lys-NH2], in the series with Male Sprague-Dawley rats [1] (four rats of the higher dose DALDA group), the “minimum VE” value is recorded as “less than 60 % of baseline”. The “minimum VE compared with saline group” value in the series on Male Sprague-Dawley rats [1] (setting [4]) and with Male Sprague-Dawley rats [1] (setting [5]) was “significantly lower minimum VE” each time. In addition, the “Time of Occurrence of Low Minimum VE” value is given as 3-5 h after administration with Male Sprague-Dawley rats [1] (higher dose, 30 times ED50) and 3-5 h after administration in the series with Male Sprague-Dawley rats [1] (lower dose, 3 times ED50). Besides, the “No. of Rats with Low Minimum VE” value in the series with Male Sprague-Dawley rats [1] (setting [7]) and in the series with Male Sprague-Dawley rats [1] (setting [8]) was 4 each time. For the same molecule, the “rigidity of the caudal part of the body” value in the series on Male Sprague-Dawley rats [2] is on record as “Rigidity of the caudal part of the body was observed in each animal”. Further, the sedative effects entry with Male Sprague-Dawley rats [2] (higher dose, coincided with respiratory depression) was “showed sedative effects”. Also, in the series with Male Sprague-Dawley rats [3], the “time for which tail-flick latencies were significantly greater than baseline” value worked out at 7 h. The “Response Latencies” value is “not different from baseline values” with Male Sprague-Dawley rats [3] (setting [6]) and ≥ 7 (cut-off latency)* s in the series with Male Sprague-Dawley rats [3] (saline 10 min prior to measurement, cut-off 7 s, listed as DALDA + saline). Also, the “Potency Ratios” value in the series with Male Sprague-Dawley rats [3] was 14 and 14.1. For the same molecule, the EDT50 in the series on Male Sprague-Dawley rats [3] (intrathecal) turned out to be 237 pmol. Also, the “Baseline Latencies” value in the series with Male Sprague-Dawley rats [3] stood at 2.63 ± 0.15 s.
